Experimental data taken from patent publication US12622866B2, “Topical compositions and methods” (MARY KAY INC., priority 2018, dated 2026).

Legend:
[1] = test system: Type I procollagen peptide secretion by human adult epidermal fibroblasts; assay: Collagen stimulation assay; format: cell-based; conditions: ingredient 1%, 3 days, ELISA
Text: Collagen is an extracellular matrix protein critical for skin structure. Increased synthesis of collagen helps improve skin firmness and elasticity. This bioassay was used to examine effects on the production of procollagen peptide (a precursor to collagen) by human epidermal fibroblasts. The endpoint of this assay was a spectrophotometric measurement that reflects the presence of procollagen peptide and cellular viability. The assay employed the quantitative sandwich enzyme immunoassay technique whereby a monoclonal antibody specific for procollagen peptide was pre-coated onto a microplate. Standards and samples were pipetted into the wells and any procollagen peptide present was bound by the immobilized antibody. […] Color development was stopped and the intensity of the color at 450 nm was measured using a microplate reader.
For generation of samples and controls, subconfluent normal human adult epidermal fibroblasts (Cascade Biologics) were cultivated in standard DMEM growth medium with 10% fetal bovine serum (Mediatech) at 37° C. in 10% CO2. […] Following incubation, cell culture medium was collected and the amount of Type I procollagen peptide secretion was quantified using the sandwich enzyme linked immuno-sorbant assay (ELISA) from Takara (#MK101) as explained above. […]

[2] = Antioxidant (AO) assay, total anti-oxidant capacity; format: biochemical; conditions: ingredient 1%, Cayman Anti-Oxidant capacity kit #709001
Text: The assay relies on the ability of antioxidants in the sample to inhibit the oxidation of ABTS® (2,2′-azino-di-[3-ethylbenzthiazoline sulphonate]) to ABTS®·+by metmyoglobin. The antioxidant system of living organisms includes enzymes such as superoxide dismutase, catalase, and glutathione peroxidase; macromolecules such as albumin, ceruloplasmin, and ferritin; and an array of small molecules, including ascorbic acid, α-tocopherol, β-carotene, reduced glutathione, uric acid, and bilirubin. The sum of endogenous and food-derived antioxidants represents the total antioxidant activity of the extracellular fluid. Cooperation of all the different antioxidants provides greater protection against attack by reactive oxygen or nitrogen radicals, than any single compound alone. Thus, the overall antioxidant capacity may give more relevant biological information compared to that obtained by the measurement of individual components, as it considers the cumulative effect of all antioxidants present in plasma and body fluids. The capacity of the antioxidants in the sample to prevent ABTS oxidation was compared with that of Trolox, a water-soluble tocopherol analogue, and was quantified as molar Trolox equivalents. […]

mushroom tyrosinase = assay: Mushroom tyrosinase activity assay; format: biochemical; conditions: ingredient 1%, substrate L-Dopa, read at 490 nm
Experimental: In mammalian cells, tyrosinase catalyzes two steps in the multi-step biosynthesis of melanin pigments from tyrosine (and from the polymerization of dopachrome). Tyrosinase is localized in melanocytes and produces melanin (aromatic quinone compounds) that imparts color to skin, hair, and eyes. Purified mushroom tyrosinase (Sigma) was incubated with its substrate L-Dopa (Fisher) in the presence of each of the ingredients in the amounts indicated in Table 3. Pigment formation was evaluated by colorimetric plate reading at 490 nm. The percent inhibition of mushroom tyrosinase activity was calculated compared to non-treated controls to determine the ability of tested ingredients to inhibit the activity of purified enzyme.

[3] = test system: lysyl oxidase expression in skin cells; assay: Lysyl oxidase assay; format: cell-based; conditions: ingredient 1%
Experimental: A lysyl oxidase assay was performed on skin cells (e.g., epidermal keratinocytes, fibroblasts, and/or dermal endothelial cells) to determine the ability of the ingredient listed in Table 8 to stimulate expression of lysyl oxidase in skin. Lysyl oxidase can catalyze crosslinking of elastin and collagens, thereby providing for a more structurally rigid matrix for skin. By increasing expression of lysyl oxidase, increased cross-linking of elastin and collagens can occur, which can be beneficial in reducing the appearance of fine lines, wrinkles, sagging skin, and/or non-elastic skin.

[4] = test system: TNF-α production by human epidermal keratinocytes; assay: Tumor necrosis factor alpha (TNF-α) assay; format: cell-based; conditions: ingredient 1%, PMA 10 ng/ml, 6 hours, ELISA
Text: The prototype ligand of the TNF superfamily, TNF-α, is a pleiotropic cytokine that plays a central role in inflammation. Increase in its expression is associated with an up regulation in pro-inflammatory activity. This bioassay was used to analyze the effect of the ingredients in the amounts listed in Table 9 on the production of TNF-α by human epidermal keratinocytes. The endpoint of this assay was a spectrophotometric measurement that reflects the presence of TNF-α and cellular viability. The assay employs the quantitative sandwich enzyme immunoassay technique whereby a monoclonal antibody specific for TNF-α has been pre-coated onto a microplate. Standards and samples were pipetted into the wells and any TNF-α present is bound by the immobilized antibody. After washing away any unbound substances, an enzyme-linked polyclonal antibody specific for TNF-α is added to the wells. Following a wash to remove any unbound antibody-enzyme reagent, a substrate solution is added to the wells and color develops in proportion to the amount of TNF-α bound in the initial step using a microplate reader for detection at 450 nm. The color development was stopped and the intensity of the color was measured. […] Following incubation, cell culture medium was collected and the amount of TNF-a secretion quantified using a sandwich enzyme linked immuno-sorbant assay (ELISA) from R&D Systems (#DTA00C).

B16-F1 melanocytes = assay: B16 pigmentation assay (melanogenesis); format: cell-based, mouse; conditions: ingredient 1%, 6 days, melanin secretion by absorbance at 405 nm
Text: Melanogenesis is the process by which melanocytes produce melanin, a naturally produced pigment that imparts color to skin, hair, and eyes. Inhibiting melanogenesis is beneficial to prevent skin darkening and lighten dark spots associated with aging. This bioassay utilizes B16-F1 melanocytes (ATCC), an immortalized mouse melanoma cell line, to analyze the effect of compounds on melanogenesis. The endpoint of this assay is a spectrophotometric measurement of melanin production and cellular viability. B16-F1 melanocytes, were cultivated in standard DMEM growth medium with 10% fetal bovine serum (Mediatech) at 37° C. in 10% CO2 and then treated with the ingredients in the amounts indicated in Table 2 for 6 days. Following incubation, melanin secretion was measured by absorbance at 405 nm and cellular viability is quantified.

Molecule | % of expression (Collagen 1 Expression) [1] [%] | % of Inhibition (Anti-oxidant capacity) [2] [%] | % of Inhibition (Mushroom Tyrosinase Inhibition) (mushroom tyrosinase) [%] | % of expression (Lysyl Oxidase) [3] [%] | % of expression (TNF-α Expression) [4] [%] | % of Inhibition (B16 melanogenesis) (B16-F1 melanocytes) [%]
Sodium ascorbyl phosphate [Stay C 50] | 36 | 97 | 26 | 500 | 85 | 
NC(=O)c1cccnc1 [Niacinamide] |  |  |  |  |  | 30
